# Experimental data from patent US20190030009A1, “COMPOUNDS AND COMPOSITIONS FOR THE TREATMENT OF CRYPTOSPORIDIOSIS” (Novartis AG, priority 2016, published 2019).
# pEC50: −log10 of the molar value.
# Test system: Cryptosporidium parvum
# Experiment: Cytopathic effect (CPE) based assay, C. parvum infected HCT-8 cells
# Details: HCT-8 host cell viability (CellTiter-Glo), 48 hours treatment, read-out: Cp CPE EC50
# Procedure: Human ileocecal colorectal adenocarcinoma cells (HCT-8 [HRT-18] ATCC, CCL-34) were maintained in T-175 flasks (Corning, 431080) in complete growth medium (RPMI-1640 medium (Gibco, 11875) supplemented with 10% heat-inactivated horse serum (Gibco, 26050), 1×MEM non-essential amino acids (Gibco, 11140), 10 mM HEPES (Gibco, 15630), 100 units/mL penicillin, and 100 units/mL streptomycin) at 37° C. and 5% CO2 in a humidified incubator. Cultures were passaged twice weekly using 10 mL of 1×Phosphate-Buffered Saline (PBS) without Ca^2+ and Mg^2+ (Gibco, 20012) for washing and 3-5 mL per T-175 flask of TrypLE Express Enzyme (Gibco, 12604) for dissociation of adherent cells.
# Cryptosporidium parvum oocysts purchased from the Sterling Laboratory, University of Arizona (Iowa isolate) were purified from infected calf feces using discontinuous sucrose and cesium chloride centrifugation gradients and stored in PBS solution containing 0.01% Tween 20, 100 units/mL penicillin and 100 units/mL gentamicin.
# Excystation and infection protocols were developed following established methods with some modifications (Gut & Nelson, 1999, Upton et aL, 1995, Bessoff et aL, 2013). Briefly, oocysts were primed in 1 mL of 10 mM hydrochloric acid in 1× Hank's Balanced Salt Solution (HBSS) (Gibco, 14025) for 10 minutes with agitation at 1000 rpm, 37° C. on an Eppendorf thermomixer, then washed twice with 1 mL of room temperature non-acidic 1× HBSS by centrifugation at 13,000 rpm for 3 minutes at 25° C. Primed oocysts were further excysted at a concentration of 1×10^6 oocysts/μL in parasite infection medium consisting of a pre-warmed and pre-gassed 1:1 formulation of Leibovitz's L-15 medium (Gibco, 11415) and UltraCULTURE medium (Lonza, 12-725F) supplemented with 2 mM sodium taurocholate (Sigma, 86339-1), 10% heat-inactivated horse serum, and 200 μM L-ascorbic acid (Sigma, 95210) at 25° C. for 10 minutes. HCT-8 monolayer cells were infected with excysted cryptosporidium at a specified multiplicity of infection (MOI). All dilutions for subsequent assays were performed in parasite infection medium without sodium taurocholate. Pre-excysted oocysts were enumerated microscopically using a C-Chip disposable hemocytometer (NanoEnTek, DHC-N01).
# Compound powders were dissolved in neat DMSO (Fisher, D4121) to 10 mM and stored at 4° C. prior to dilution into source plates. Dilutions were carried out using a Microlab STAR liquid handler (Hamilton) to obtain compound source plates containing the ten-point or eight-point three fold dilutions starting from 10 mM in duplicates. Source plates were stored at 4° C. prior to spotting into assay plates. Before administration, all compound source plates were equilibrated to room temperature. A specified volume of compounds from source plate were spotted to assay plate using an Echo Acoustic liquid handler (LABCYTE, 550) so that the final DMSO concentration was less than 0.5%. Each assay plate a specified number of DMSO-treated negative control wells and a well-studied potent active compound at 100 nM as positive control. As a quality control, all positive and negative-control wells were used to calculate a Z′-value and signal to noise ratio (S:N) for each plate.
# Cryptosporidium spp are obligate-intracellular parasites that infect intestinal epithelial cells and the host cell is killed upon parasite egress. […] The loss of epithelial cells is due to both rapid parasite invasion/multiplication/egress and also pro-inflammatory immune response (Adams et al., 1994, Griffiths et al., 1994). We have observed a consistent cytopathic effect (CPE) in HCT-8 cells with C. spp infection the loss of viability of the host cells using CellTiter-Glo reagent.
# Confluent HCT-8 cells in T-175 flasks were directly infected with excysted oocysts at an MOI (host to parasite) of 1:2 for C. parvum and 1:4 for C. hominis. The number of host-cells is determined using a NucleoCounter (Chemometec, NC-100) in a control flask. […]
row,Compound,pEC50
1,CN(C(=O)c1ccn2ncc(-c3ccc(C(N)=O)cc3)c2c1)c1ccc(Cl)cc1C=O [Example 89],7.07
2,CN(C(=O)c1ccn2ncc(-c3ccc(C(F)(F)F)cc3)c2c1)C1=CCC(C#N)C=C1 (centres unmarked) [Example 1],6.18
3,CN(C(=O)c1ccn2ncc(-c3cnc(N)c(F)c3)c2c1)c1ccc(C#N)cc1 [Example 79],6.69
4,CN(C(=O)c1ccn2ncc(-c3ccc(C(F)(F)F)cc3)c2c1)c1ccc(S(C)(=O)=O)cn1 [Example 34],5.31
5,CNC(=O)c1ccc(-c2cnn3ccc(C(=O)N(C)c4ccc(C#N)cc4)cc23)cc1 [Example 67],7.59
6,CN(C(=O)c1ccc(F)cn1)c1ccn2ncc(-c3ccc(C(F)(F)F)cc3)c2c1 [Example 51],< 4.70
7,Cc1ccc(OCc2ccn3ncc(-c4ccc(C(F)(F)F)cc4)c3c2)nc1 [Example 15],< 4.70
8,Cc1cc(-c2cnn3ccc(C(=O)N(C)c4ccc(C#N)cc4)cc23)cc(C)c1N [Example 80],5.93
9,COc1cc(-c2cnn3ccc(C(=O)N(C)c4ccc(C#N)cn4)cc23)cnc1N [Example 88],5.65
10,Cc1ccc(N(C)Cc2ccn3ncc(-c4ccc(C(F)(F)F)cc4)c3c2)nc1 [Example 7],< 4.70
11,Cc1ccc(N(C)C(=O)c2ccn3ncc(-c4ccc(C(F)(F)F)cc4)c3c2)nc1 [Example 5],< 4.70
12,CN(C(=O)c1ccn2ncc(-c3ccc(C(F)(F)F)cc3)c2c1)c1ccc(F)cc1 [Example 4],5.17
13,CN(C(=O)c1ccn2ncc(-c3cnc(N)c(Cl)c3)c2c1)c1ccc(C#N)cn1 [Example 86],6.30
14,CN(C(=O)c1ccc(C(C)(F)F)nc1)c1ccn2ncc(-c3ccc(C(F)(F)F)cc3)c2c1 [Example 48],5.20
15,COc1ccc(-c2cnn3ccc(C(=O)N(C)c4ccc(C#N)cn4)cc23)nc1 [Example 60],5.63
16,Cc1cc(-c2cnn3ccc(C(=O)N(C)c4ccc(C#N)cc4)cc23)cnc1N [Example 81],6.17

row,Compound,pEC50
1,CN(C(=O)c1ccn2ncc(-c3ccc(C(F)(F)F)cn3)c2c1)c1ccc(C#N)cn1 [Example 25],5.64
2,CNC(=O)c1ccc(-c2cnn3ccc(C(=O)N(c4ccc(C#N)cn4)C4COC4)cc23)cc1 [Example 76],< 4.70
3,CN(C(=O)c1ccn2ncc(-c3ccc(C(F)(F)F)cc3)c2c1)c1ccc(C(F)(F)F)cn1 [Example 33],5.82
4,CC(c1ccn2ncc(-c3ccc(C(N)=O)cc3)c2c1)N1C(=O)COc2cc(F)ccc21 (centres unmarked) [Example 66],6.88
5,CN(C(=O)c1ccc(C2CC2)nc1)c1ccn2ncc(-c3ccc(C(F)(F)F)cc3)c2c1 [Example 49],4.72
6,CC(=O)Nc1ccc(-c2cnn3ccc(C(C)N(C)c4ccc(C)cn4)cc23)cc1 (centres unmarked) [Example 68],4.71
7,CNc1nnc(-c2ccc(-c3cnn4ccc(N(C)C(=O)c5ccc(F)cc5)cc34)cc2)s1 [Example 57],5.25
8,CNC(=O)c1ccc(-c2cnn3ccc(C(=O)N4CCOc5cc(F)ccc54)cc23)cc1 [Example 73],6.02
9,CN(C(=O)c1ccc(C2CC2)cc1)c1ccn2ncc(-c3ccc(C(F)(F)F)cc3)c2c1 [Example 50],< 4.70
10,CN(C(=O)c1ccn2ncc(-c3cnc4[nH]ccc4c3)c2c1)c1ccc(C#N)cc1 [Example 40],7.13
11,Cc1ccc(-c2cnn3ccc(C(=O)N(C)c4ccc(C#N)cn4)cc23)nc1 [Example 59],< 4.70
12,CN(C(=O)c1ccn2ncc(-c3ccc(N)cc3)c2c1)c1ccc(C#N)cc1 [Example 42],6.85
13,CS(=O)(=O)c1ccc(N(CC2CCOCC2)C(=O)c2ccn3ncc(-c4ccc(C(F)(F)F)cc4)c3c2)cc1 [Example 12],4.90
14,Fc1ccc(CNc2ccn3ncc(-c4ccc(C(F)(F)F)cc4)c3c2)cc1 [Example 35],< 4.70
15,CN(C(=O)c1ccn2ncc(-c3ccc(C(F)(F)F)cc3)c2c1)c1ccc(Cl)cc1 [Example 3],4.78
16,CN(C(=O)c1ccn2ncc(-c3cnc(N)c(C(F)(F)F)c3)c2c1)c1ccc(C#N)cn1 [Example 84],5.37
